Reference: ChEMBL document CHEMBL6083290, “Proline Analogues in Drug Design: Current Trends and Future Prospects” (J Med Chem, 2024)
Starred links: 1 amine or outer side, 2 acyl side, 3 side chain; linkers in the order of their positions; H or OH if unused. Non-standard residues stand in square brackets, D forms with d. Residues, ends and D or L forms follow the SMILES beside them. ξ: configuration not given here. *: point of attachment. X3 = CC(C)C[C@H](N[*:1])[C@H](O)C[C@H](C(=O)[*:2])C(C)C; X2 = O=C(C1[C@@H](F)[C@@H](O)CN1[*:1])[*:2]; X1 = O=C(C1[C@H](F)[C@@H](O)CN1[*:1])[*:2]; ξPro(4R-OH) = O=C(O)C1C[C@@H](O)CN1; NHCH2(2-pyridyl) = c1ccc(CN*)nc1; αMeP = C[C@@]1(C(=O)O)CCCN1; Boc = CC(C)(C)OC(=O)*

Key:
[1] = in vitro; conditions: rat, plasma
[2] = molecular target: T1, Replicase polyprotein 1ab (Severe acute respiratory syndrome coronavirus 2, UniProt P0DTD1)
Description: Inhibition of SARS-CoV-2 main protease

[3] = molecular target: Endothelial PAS domain-containing protein 1 (Homo sapiens, UniProt Q99814); assay: Binding affinity to HIF-2alpha (unknown origin) assessed as dissociation constant
[4] = Inhibition of Glutamate receptor (unknown origin)
[5] = tested on: MCF7; assay: Antiproliferative activity against human MCF7 cells assessed as reduction in cell viability incubated for 48 hrs by MTT assay; conditions: MCF7, 48 h
[6] = tested on: L-363; assay: Antiproliferative activity against human L-363 cells assessed as reduction in cell growth incubated for 72 hrs by MTT assay; conditions: L-363, 72 h
[7] = tested on: SARS-CoV-2; assay: microbe, parasite or virus in culture; conditions: Severe acute respiratory syndrome coronavirus 2, 2019-nCoV Muc-IMB-1, Vero C1008, 48 h
Description: Antiviral activity against SARS-CoV-2 2019-nCoV Muc-IMB-1 infected in Vero E6 cells assessed as reduction in viral replication measured after 48 hrs by qRT-PCR analysis

[8] = molecular target: Phosphatidylinositol 4,5-bisphosphate 3-kinase catalytic subunit alpha isoform (Homo sapiens, UniProt P42336); assay: Inhibition of PI3Kalpha (unknown origin) using PIP2 as substrate measured after 30 mins by TR-FRET assay
[9] = molecular target: T1, Replicase polyprotein 1ab; remark: listed apart in the source
Description: Inhibition of SARS-CoV-2 main protease extracted from Escherichia coli BL21 (DE3) cells

[10] = Lipophilicity, logP of compound; conditions: octanol/water
[11] = molecular target: T2, Renin (Homo sapiens, UniProt P00797); assay: Inhibition of renin (unknown origin) using Arg-Glu(EDANS)-lle-His-Pro-Phe-His-Leu-Val-lle-His-Thr-Lys(dabcyl)-Arg as substrate incubated for 10 mins by fluorescence based assay
T2 sequence (P00797 whole entry): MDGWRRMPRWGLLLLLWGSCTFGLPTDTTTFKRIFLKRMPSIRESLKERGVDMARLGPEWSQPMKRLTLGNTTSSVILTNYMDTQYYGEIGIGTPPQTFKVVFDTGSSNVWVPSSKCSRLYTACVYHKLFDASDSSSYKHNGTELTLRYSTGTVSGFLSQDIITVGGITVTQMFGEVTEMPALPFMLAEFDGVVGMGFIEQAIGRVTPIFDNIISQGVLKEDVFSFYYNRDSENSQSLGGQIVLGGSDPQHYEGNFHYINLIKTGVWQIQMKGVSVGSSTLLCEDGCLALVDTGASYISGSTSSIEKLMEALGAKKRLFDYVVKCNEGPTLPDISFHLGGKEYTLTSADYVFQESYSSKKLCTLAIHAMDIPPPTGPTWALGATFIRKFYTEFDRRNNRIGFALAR

[12] = Metabolic stability in rat liver microsomes assessed as half life

Chain of Endothelial PAS domain-containing protein 1 (Q99814 whole entry, the tested form may be a part): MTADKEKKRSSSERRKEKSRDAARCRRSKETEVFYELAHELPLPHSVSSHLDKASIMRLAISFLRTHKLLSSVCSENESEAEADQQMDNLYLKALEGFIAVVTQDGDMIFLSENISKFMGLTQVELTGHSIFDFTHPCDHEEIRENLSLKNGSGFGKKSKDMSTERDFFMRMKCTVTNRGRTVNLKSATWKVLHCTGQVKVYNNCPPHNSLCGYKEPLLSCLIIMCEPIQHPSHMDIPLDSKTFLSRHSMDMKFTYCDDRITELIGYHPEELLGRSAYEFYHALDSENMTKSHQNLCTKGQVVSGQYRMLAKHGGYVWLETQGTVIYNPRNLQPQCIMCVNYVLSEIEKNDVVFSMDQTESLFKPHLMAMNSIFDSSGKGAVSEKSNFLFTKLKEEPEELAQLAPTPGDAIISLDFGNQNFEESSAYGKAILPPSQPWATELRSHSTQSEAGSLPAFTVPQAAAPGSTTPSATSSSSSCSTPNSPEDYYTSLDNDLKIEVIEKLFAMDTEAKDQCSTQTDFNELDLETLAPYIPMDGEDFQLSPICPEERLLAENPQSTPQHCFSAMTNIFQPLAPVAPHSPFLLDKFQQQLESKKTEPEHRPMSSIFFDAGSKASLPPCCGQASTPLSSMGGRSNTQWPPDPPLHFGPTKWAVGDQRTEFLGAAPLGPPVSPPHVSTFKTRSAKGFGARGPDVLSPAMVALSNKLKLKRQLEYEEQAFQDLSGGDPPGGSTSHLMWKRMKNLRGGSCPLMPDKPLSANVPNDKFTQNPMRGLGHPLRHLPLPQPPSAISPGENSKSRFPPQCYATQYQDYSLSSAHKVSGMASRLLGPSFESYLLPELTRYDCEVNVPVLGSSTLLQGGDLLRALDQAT
Chain of Phosphatidylinositol 4,5-bisphosphate 3-kinase catalytic subunit alpha isoform (P42336 whole entry, canonical isoform): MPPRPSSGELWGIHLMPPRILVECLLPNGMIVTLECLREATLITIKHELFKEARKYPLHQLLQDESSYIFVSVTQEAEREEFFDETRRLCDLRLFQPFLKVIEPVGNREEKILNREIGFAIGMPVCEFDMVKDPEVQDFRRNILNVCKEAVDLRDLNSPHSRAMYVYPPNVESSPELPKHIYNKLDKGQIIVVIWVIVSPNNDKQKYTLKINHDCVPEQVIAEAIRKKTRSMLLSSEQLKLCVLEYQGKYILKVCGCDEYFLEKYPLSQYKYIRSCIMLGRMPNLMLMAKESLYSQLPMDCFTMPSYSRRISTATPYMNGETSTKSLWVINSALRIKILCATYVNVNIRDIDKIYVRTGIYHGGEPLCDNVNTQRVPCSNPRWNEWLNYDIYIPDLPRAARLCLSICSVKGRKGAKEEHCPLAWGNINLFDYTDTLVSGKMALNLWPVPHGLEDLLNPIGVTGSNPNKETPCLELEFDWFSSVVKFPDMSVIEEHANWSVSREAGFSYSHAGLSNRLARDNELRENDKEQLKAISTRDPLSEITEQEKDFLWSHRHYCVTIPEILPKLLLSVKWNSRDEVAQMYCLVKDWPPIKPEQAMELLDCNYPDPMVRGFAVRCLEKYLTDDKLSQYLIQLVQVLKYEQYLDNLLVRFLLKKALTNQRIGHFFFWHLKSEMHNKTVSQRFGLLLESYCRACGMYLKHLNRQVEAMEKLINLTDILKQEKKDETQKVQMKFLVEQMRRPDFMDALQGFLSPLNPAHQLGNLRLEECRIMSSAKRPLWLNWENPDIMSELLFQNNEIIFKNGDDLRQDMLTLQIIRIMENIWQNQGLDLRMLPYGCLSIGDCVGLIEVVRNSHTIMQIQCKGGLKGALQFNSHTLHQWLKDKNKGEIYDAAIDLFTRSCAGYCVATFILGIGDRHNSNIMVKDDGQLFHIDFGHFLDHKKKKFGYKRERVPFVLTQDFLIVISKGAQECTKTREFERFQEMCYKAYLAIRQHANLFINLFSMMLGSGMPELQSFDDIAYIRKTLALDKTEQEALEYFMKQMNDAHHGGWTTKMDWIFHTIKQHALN

## C[C@@]1(C(=O)N[C@@H](CCC(=O)O)C(=O)O)CCCN1C(=O)CN [TROFINETIDE] (H-Gly-[αMeP]-Glu-OH)
[1]
  half-life: 49 min

## Cc1c(COc2cc(OCc3cccc(C#N)c3)c(CN3C[C@H](O)C[C@@H]3C(=O)O)cc2Cl)cccc1-c1ccc2c(c1)OCCO2
[2]
  IC50: 10.9 nM

## CC[C@H](C)[C@H](NC(=O)[C@H](CCC(=O)O)NC(=O)[C@H](Cc1ccccc1)NC(=O)[C@H](CC(=O)O)NC(=O)[C@H](CC(=O)O)NC(=O)[C@H](CC(=O)O)NC(=O)[C@H](CCSC)NC(=O)[C@@H]1CCCN1C(=O)[C@H](Cc1ccc(O)cc1)NC(=O)C1[C@H](F)[C@@H](O)CN1C(=O)[C@H](C)NC(=O)[C@H](CC(C)C)NC(=O)[C@H](C)NC(=O)[C@H](CCC(=O)O)NC(=O)[C@@H](N)CC(=O)O)C(=O)N[C@@H](CCCNC(=N)N)C(=O)N[C@@H](CO)C(=O)N[C@@H](Cc1ccccc1)C(=O)O (some centres not stated) (H-DEALA[X1]YPMDDDFEIRSF-OH)
[3]
  Kd: 52 nM

## O=C(O)[C@@H]1C[C@H]2C[C@H](CN3CC(F)(F)C[C@H]3C(=O)O)CC[C@H]2CN1
[4]
  IC50: 45 nM

## Cc1nc(NC(=O)N2CCC[C@H]2C(N)=O)sc1-c1ccnc(C(C)(C)C(F)(F)F)c1 [ALPELISIB]
[5]
  IC50: 1200 nM
[6]
  IC50: 170 nM

## COc1ccc2nccc(C(=O)NCC(=O)N3CC(F)(F)C[C@H]3C#N)c2c1
[2]
  IC50: 9 nM

## COc1cccc2[nH]c(C(=O)N3C[C@H]4[C@@H]([C@H]3C(=O)N[C@@H](C[C@@H]3CCNC3=O)C(=O)c3nc5ccccc5s3)C4(C)C)cc12
[7]
  EC50: 1400 nM

## CC(=O)N[C@@H](C(=O)N1C[C@H](O)[C@@H](F)C1C(=O)NCc1ccc(-c2scnc2C)cc1)C(C)(C)C (some centres not stated)
[3]
  Kd: 3.1 nM

## O=C(/C=C/c1cccc(S(=O)(=O)Nc2ccccc2)c1)NO [BELINOSTAT]
[5]
  IC50: 1200 nM
[6]
  IC50: 170 nM
[8]
  IC50: 2.9 nM

## COc1ccc(/C=C/C(=O)N2C[C@@H](NC(=O)c3cccnc3)C[C@H]2C(=O)NO)cc1OC
[9]
  IC50: 9 nM
[10]
  logP: 0.1

## CC[C@H](C)[C@H](NC(=O)[C@H](CCC(=O)O)NC(=O)[C@H](Cc1ccccc1)NC(=O)[C@H](CC(=O)O)NC(=O)[C@H](CC(=O)O)NC(=O)[C@H](CC(=O)O)NC(=O)[C@H](CCSC)NC(=O)[C@@H]1CCCN1C(=O)[C@H](Cc1ccc(O)cc1)NC(=O)C1C[C@@H](O)CN1C(=O)[C@H](C)NC(=O)[C@H](CC(C)C)NC(=O)[C@H](C)NC(=O)[C@H](CCC(=O)O)NC(=O)[C@@H](N)CC(=O)O)C(=O)N[C@@H](CCCNC(=N)N)C(=O)N[C@@H](CO)C(=O)N[C@@H](Cc1ccccc1)C(=O)O (stereo partly drawn) (H-DEALA[ξPro(4R-OH)]YPMDDDFEIRSF-OH)
[3]
  Kd: 11 nM

## CC[C@H](C)[C@H](NC(=O)[C@H](CCC(=O)O)NC(=O)[C@H](Cc1ccccc1)NC(=O)[C@H](CC(=O)O)NC(=O)[C@H](CC(=O)O)NC(=O)[C@H](CC(=O)O)NC(=O)[C@H](CCSC)NC(=O)[C@@H]1CCCN1C(=O)[C@H](Cc1ccc(O)cc1)NC(=O)C1[C@@H](F)[C@@H](O)CN1C(=O)[C@H](C)NC(=O)[C@H](CC(C)C)NC(=O)[C@H](C)NC(=O)[C@H](CCC(=O)O)NC(=O)[C@@H](N)CC(=O)O)C(=O)N[C@@H](CCCNC(=N)N)C(=O)N[C@@H](CO)C(=O)N[C@@H](Cc1ccccc1)C(=O)O (some centres not stated) (H-DEALA[X2]YPMDDDFEIRSF-OH)
[3]
  Kd: 12 nM

## C[C@@H](C(=O)N[C@H](C(=O)N1C[C@H](OC(F)F)C[C@H]1C(=O)N[C@H](C#N)C[C@@H]1CCNC1=O)C(C)(C)C)N(C)C(=O)CCCCCNc1cccc2c1C(=O)N(C1CCC(=O)NC1=O)C2=O (some centres not stated)
[9]
  IC50: 182 nM

## CC(C)(C)[C@H](NC(=O)C(F)(F)F)C(=O)N1C[C@H]2[C@@H]([C@H]1C(=O)N[C@H](C#N)C[C@@H]1CCNC1=O)C2(C)C
[7]
  EC50: 5600 nM

## CC(=O)N[C@@H](C(=O)N1C[C@H](O)[C@H](F)C1C(=O)NCc1ccc(-c2scnc2C)cc1)C(C)(C)C (some centres not stated)
[3]
  Kd: 0.24 nM

## CC[C@H](C)[C@H](NC(=O)[C@@H](C[C@@H](O)[C@H](CC(C)C)NC(=O)[C@H](Cc1c[nH]cn1)NC(=O)[C@H](Cc1ccccc1)NC(=O)[C@]1(C)CCCN1C(=O)OC(C)(C)C)C(C)C)C(=O)NCc1ccccn1 (Boc-[αMeP]FH[X3]I-{NHCH2(2-pyridyl)})
[11]
  IC50: 2 nM

## COc1cccc2[nH]c(C(=O)N[C@@H](CC(C)C)C(=O)N[C@H](C#N)C[C@@H]3CCNC3=O)cc12
[7]
  EC50: 1200 nM

## CS(=O)(=O)c1cncc(C(=O)N2[C@@H](C(=O)N[C@@H](c3cc(F)c(C(F)(F)F)cc3F)C3CC3)C[C@H]3C[C@H]32)c1 [NELUTROCTIV]
[12]
  half-life: 30 min
